# How the values were obtained:
# [1] = test system: rat model of cerebral infarction; conditions: administered before the event; cited from earlier work
# rats = assay: 3-acetylpyridine (3-AP) neurotoxicity model in rats; type: in vivo, rat
# [2] = sumanirole 1-20 mg/kg PO, given before or after 3-AP, sacrifice 96 hours later, dose-related
structure (smiles),measurement,setting,value
CN[C@@H]1Cc2cccc3[nH]c(=S)n(c23)C1,melting point,,210 to 213 °C
CN[C@@H]1Cc2cccc3[nH]c(=S)n(c23)C1.O=C(O)CC(O)C(=O)O,melting point,,195 to 196 °C
CCN(CC)C(=O)N[C@H]1C=C2c3cccc4[nH]cc(c34)C[C@H]2N(C)C1 [Lisuride],brain edema,[1],reduced
same,survival time,[1],prolonged
"CN[C@@H]1Cc2cccc3[nH]c(=O)n(c23)C1.O=C(O)/C=C\C(=O)O [Sumanirole, (5R)-5-(methylamino)-5,6-dihydro-4H-imidazo[4,5,1-ij]quinolin-2(1H)-one (Z)-2-butenedioate (1:1)]",neuroprotective effects of sumanirole after pretreatment with raclopride,rats; pretreatment with raclopride,did not block
same,3-AP induced reduction in rotorod performance,"rats; sumanirole 1-20 mg/kg PO, given before or after 3-AP, dose-related",significantly attenuated
same,3-AP induced reduction in cerebellar ATP,rats; [2],significantly attenuated
same,3-AP induced reduction in cerebellar cGMP,rats; [2],significantly attenuated
same,inferior olive neuronal cell loss produced by 3-AP,"rats; sumanirole 1-20 mg/kg PO, neuronal cell counts 96 hours later",significantly reduced

# From patent US20040142937A1, “Use of heterocyclic amine-type compounds as neuroprotective agents” (priority 2002, published 2004)
